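Step 1: Grow cells in 96-well plates. Step 2: Expose to compound for 48 hours at 5 concentrations. Step 3: Interpolate endpoints linearly; if unreached, use highest concentration. GI50 is the concentration that inhibits growth by half. At the TGI there is no net growth.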
Columns and labels:
Experiment in all cases: growth of human tumour cells (NCI), 48 h
HCT-15 colon = test system: HCT-15 colon
OVCAR-5 ovarian = test system: OVCAR-5 ovarian
MDA-MB-435 = test system: MDA-MB-435
SK-MEL-5 melanoma = test system: SK-MEL-5 melanoma
TK-10 renal = test system: TK-10 renal
NCI-H522 lung = test system: NCI-H522 lung
EKVX NSCLC = test system: EKVX NSCLC
HL-60(TB) leukemia = test system: HL-60(TB) leukemia
PC-3 prostate = test system: PC-3 prostate
SF-268 CNS = test system: SF-268 CNS
K-562 leukemia = test system: K-562 leukemia
SF-295 CNS = test system: SF-295 CNS
SNB-75 CNS = test system: SNB-75 CNS
NCI-H460 lung = test system: NCI-H460 lung
A498 renal = test system: A498 renal
SF-539 CNS = test system: SF-539 CNS
M14 melanoma = test system: M14 melanoma
DU-145 prostate = test system: DU-145 prostate
UO-31 renal = test system: UO-31 renal
SK-OV-3 ovarian = test system: SK-OV-3 ovarian
786-0 renal = test system: 786-0 renal
HT29 colon = test system: HT29 colon
SW-620 colon = test system: SW-620 colon
SK-MEL-28 melanoma = test system: SK-MEL-28 melanoma
RXF 393 renal = test system: RXF 393 renal
SNB-19 CNS = test system: SNB-19 CNS
OVCAR-4 ovarian = test system: OVCAR-4 ovarian
HCC-2998 colon = test system: HCC-2998 colon
MCF7 breast = test system: MCF7 breast
BT-549 breast = test system: BT-549 breast
NCI-H226 lung = test system: NCI-H226 lung
SN12C renal = test system: SN12C renal
CCRF-CEM leukemia = test system: CCRF-CEM leukemia
LOX IMVI melanoma = test system: LOX IMVI melanoma
SR leukemia = test system: SR leukemia
CAKI-1 renal = test system: CAKI-1 renal
NCI/ADR-RES ovarian = test system: NCI/ADR-RES ovarian
T-47D breast = test system: T-47D breast
ACHN renal = test system: ACHN renal
HCT-116 colon = test system: HCT-116 colon
NCI-H23 lung = test system: NCI-H23 lung
UACC-257 melanoma = test system: UACC-257 melanoma
MALME-3M melanoma = test system: MALME-3M melanoma
MDA-MB-231 breast = test system: MDA-MB-231 breast
SK-MEL-2 melanoma = test system: SK-MEL-2 melanoma
U251 CNS = test system: U251 CNS
UACC-62 melanoma = test system: UACC-62 melanoma
HOP-62 NSCLC = test system: HOP-62 NSCLC
HOP-92 NSCLC = test system: HOP-92 NSCLC
RPMI-8226 leukemia = test system: RPMI-8226 leukemia
IGROV1 ovarian = test system: IGROV1 ovarian
OVCAR-3 ovarian = test system: OVCAR-3 ovarian
OVCAR-8 ovarian = test system: OVCAR-8 ovarian
COLO 205 colon = test system: COLO 205 colon
A549 NSCLC = test system: A549 NSCLC
HS 578T breast = test system: HS 578T breast
KM12 colon = test system: KM12 colon

`Cc1ccc(C2=C(c3ccc(C)cc3)C3(c4ccc(C)cc4)C4C(=O)OC(=O)C4C2(c2ccc(C)cc2)S3=O)cc1` (centres undefined) showed a GI50 (HCT-15 colon) of 33.5 µM, a TGI (HCT-15 colon) greater than 100 µM and a GI50 (OVCAR-5 ovarian) of 96.4 µM. It also gave a TGI (OVCAR-5 ovarian) greater than 100 µM, a GI50 (MDA-MB-435) of 17.5 µM and a TGI (MDA-MB-435) of 63.7 µM. For the same compound, the GI50 (SK-MEL-5 melanoma) was 21.3 µM, the TGI (SK-MEL-5 melanoma) was 57.6 µM and the GI50 (TK-10 renal) was 38.8 µM. For the same compound, the TGI (TK-10 renal) was greater than 100 µM, the GI50 (NCI-H522 lung) was 34 µM and the TGI (NCI-H522 lung) was greater than 100 µM. For the same compound, the GI50 (EKVX NSCLC) was 42 µM, the TGI (EKVX NSCLC) was greater than 100 µM and the GI50 (HL-60(TB) leukemia) was 25.5 µM. It also gave a TGI (HL-60(TB) leukemia) greater than 100 µM, a GI50 (PC-3 prostate) of 25 µM and a TGI (PC-3 prostate) greater than 100 µM. The GI50 (SF-268 CNS) was 38.5 µM, the TGI (SF-268 CNS) was greater than 100 µM and the GI50 (K-562 leukemia) was 27.7 µM. The TGI (K-562 leukemia) was greater than 100 µM, the GI50 (SF-295 CNS) was 13.1 µM and the TGI (SF-295 CNS) was 37.7 µM. For the same compound, the GI50 (SNB-75 CNS) was 15.3 µM, the TGI (SNB-75 CNS) was 36.8 µM and the GI50 (NCI-H460 lung) was 24.9 µM. For the same compound, the TGI (NCI-H460 lung) was greater than 100 µM, the GI50 (A498 renal) was 21.9 µM and the TGI (A498 renal) was 63.4 µM. The GI50 (SF-539 CNS) was 6.3 µM, the TGI (SF-539 CNS) was 31.9 µM and the GI50 (M14 melanoma) was 9.7 µM. For the same compound, the TGI (M14 melanoma) was 32.8 µM, the GI50 (DU-145 prostate) was 47.6 µM and the TGI (DU-145 prostate) was greater than 100 µM. For the same compound, the GI50 (UO-31 renal) was 34.3 µM, the TGI (UO-31 renal) was greater than 100 µM and the GI50 (SK-OV-3 ovarian) was 26.8 µM. For the same compound, the TGI (SK-OV-3 ovarian) was 98.7 µM, the GI50 (786-0 renal) was 6.91 µM and the TGI (786-0 renal) was 27.7 µM. It also gave a GI50 (HT29 colon) of 25.3 µM, a TGI (HT29 colon) greater than 100 µM and a GI50 (SW-620 colon) of 38.1 µM. The TGI (SW-620 colon) was greater than 100 µM, the GI50 (SK-MEL-28 melanoma) was 28.8 µM and the TGI (SK-MEL-28 melanoma) was 96.1 µM. The GI50 (RXF 393 renal) was 13.9 µM, the TGI (RXF 393 renal) was 30.4 µM and the GI50 (SNB-19 CNS) was 20.9 µM. For the same compound, the TGI (SNB-19 CNS) was greater than 100 µM, the GI50 (OVCAR-4 ovarian) was 59.6 µM and the TGI (OVCAR-4 ovarian) was greater than 100 µM. It also gave a GI50 (HCC-2998 colon) of 21.5 µM, a TGI (HCC-2998 colon) of 55.5 µM and a GI50 (MCF7 breast) of 29.2 µM. The TGI (MCF7 breast) was greater than 100 µM, the GI50 (BT-549 breast) was 23.9 µM and the TGI (BT-549 breast) was greater than 100 µM. The GI50 (NCI-H226 lung) was 11 µM, the TGI (NCI-H226 lung) was 48.3 µM and the GI50 (SN12C renal) was 25.1 µM. It also gave a TGI (SN12C renal) of 87.9 µM, a GI50 (CCRF-CEM leukemia) of 25.2 µM and a TGI (CCRF-CEM leukemia) greater than 100 µM. The GI50 (LOX IMVI melanoma) was 18.5 µM, the TGI (LOX IMVI melanoma) was 73.7 µM and the GI50 (SR leukemia) was 25.9 µM. The TGI (SR leukemia) was greater than 100 µM, the GI50 (CAKI-1 renal) was 26.3 µM and the TGI (CAKI-1 renal) was greater than 100 µM. It also gave a GI50 (NCI/ADR-RES ovarian) of 46.4 µM, a TGI (NCI/ADR-RES ovarian) greater than 100 µM and a GI50 (T-47D breast) greater than 100 µM. For the same compound, the TGI (T-47D breast) was greater than 100 µM, the GI50 (ACHN renal) was 15.8 µM and the TGI (ACHN renal) was 83.3 µM. The GI50 (HCT-116 colon) was 23.7 µM, the TGI (HCT-116 colon) was 92.5 µM and the GI50 (NCI-H23 lung) was 18.2 µM. The TGI (NCI-H23 lung) was 41.8 µM, the GI50 (UACC-257 melanoma) was greater than 100 µM and the TGI (UACC-257 melanoma) was greater than 100 µM. The GI50 (MALME-3M melanoma) was 27.9 µM, the TGI (MALME-3M melanoma) was 84 µM and the GI50 (MDA-MB-231 breast) was 15.6 µM. It also gave a TGI (MDA-MB-231 breast) of 45.6 µM, a GI50 (SK-MEL-2 melanoma) of 16.2 µM and a TGI (SK-MEL-2 melanoma) of 78.8 µM. The GI50 (U251 CNS) was 6.31 µM, the TGI (U251 CNS) was 24.9 µM and the GI50 (UACC-62 melanoma) was 3.57 µM. For the same compound, the TGI (UACC-62 melanoma) was 19.6 µM, the GI50 (HOP-62 NSCLC) was 16.4 µM and the TGI (HOP-62 NSCLC) was 42.5 µM. For the same compound, the GI50 (HOP-92 NSCLC) was 25.3 µM, the TGI (HOP-92 NSCLC) was 89.8 µM and the GI50 (RPMI-8226 leukemia) was 21.2 µM. It also gave a TGI (RPMI-8226 leukemia) of 89.5 µM, a GI50 (IGROV1 ovarian) of 25.7 µM and a TGI (IGROV1 ovarian) greater than 100 µM. For the same compound, the GI50 (OVCAR-3 ovarian) was 15.5 µM, the TGI (OVCAR-3 ovarian) was 39.4 µM and the GI50 (OVCAR-8 ovarian) was 25.7 µM. It also gave a TGI (OVCAR-8 ovarian) greater than 100 µM, a GI50 (COLO 205 colon) of 51.2 µM and a TGI (COLO 205 colon) greater than 100 µM. It also gave a GI50 (A549 NSCLC) of 32 µM, a TGI (A549 NSCLC) greater than 100 µM and a GI50 (HS 578T breast) of 21.3 µM. For the same compound, the TGI (HS 578T breast) was greater than 100 µM, the GI50 (KM12 colon) was 22.9 µM and the TGI (KM12 colon) was 76.1 µM.
